Measurements published in BindingDB's records for doi:10.1016/j.bmcl.2005.01.051 (Merck Research Laboratories, 2005).

Assay: Inhibition of alphaIIb-beta3 integrin mediated platelet aggregation (PLAGGIN15)

IC50	Compound
> 10 µM	COc1ccc([C@@H](CCC[C@H](O)CCc2ccc3c(n2)NCCC3)CC(=O)O)cn1 [(3S,7S)-7-Hydroxy-3-(6-methoxy-pyridin-3-yl)-9-(5,6,7,8-tetrahydro-[1,8]naphthyridin-2-yl)-nonanoic acid]
> 10 µM	COc1ccc([C@@H](CCC[C@@H](O)CCc2ccc3c(n2)NCCC3)CC(=O)O)cn1 [(3S,7R)-7-Hydroxy-3-(6-methoxy-pyridin-3-yl)-9-(5,6,7,8-tetrahydro-[1,8]naphthyridin-2-yl)-nonanoic acid]
> 10 µM	COc1ccc([C@@H](CCCC(=O)CCc2ccc3c(n2)NCCC3)CC(=O)O)cn1 [(S)-3-(6-Methoxy-pyridin-3-yl)-7-oxo-9-(5,6,7,8-tetrahydro-[1,8]naphthyridin-2-yl)-nonanoic acid]
